Reference: patent US12102615B2 (THE TEXAS A&M UNIVERSITY SYSTEM, priority 2018, dated 2024)
Converted amounts (≈) assume the structure as drawn.

How the values were obtained:
Assay type in all cases: cell-based
[1] = tested on: Trichophyton rubrum 28659; assay: MIC susceptibility testing (CLSI M38-A2); details: Trichophyton rubrum, 28659, read-out: Fluconazole MIC
Protocol: (§1) Minimum inhibitory concentration (MIC) susceptibility testing was performed according to the CLSI M27-A3 and M38-A2 standards for the susceptibility testing of yeasts and filamentous fungi, respectively. Incubation temperature was at 35° C. and the inoculum size was 0.5-2.5×10^3 colony-forming units (CFU)/mL and 0.4-5×10^4 conidia/mL for yeasts and filamentous fungi, respectively. Inoculum concentration for dermatophytes was 1-3×10^3 conidia/mL. RPMI was used throughout as the growth medium and Cryptococcus strains were tested in YNB. […] Voriconazole MICs were recorded at 80% inhibition after 96 hours of incubation for dermatophytes. S. cerevisiae deletion mutants were obtained from the commercially available BY4741 deletion library (Thermo Scientific). Susceptibility testing was carried out on inoculum size of 0.5-1×10^4 cells/ml in YPD media at 30° C. and MICs recorded after 48 and 60 hours.

[2] = tested on: Trichophyton mentagrophytes 28556; assay: MIC susceptibility testing (CLSI M38-A2); details: Trichophyton mentagrophytes, 28556, read-out: Fluconazole MIC
Protocol: as §1

[3] = tested on: Trichophyton rubrum 11199; assay: MIC susceptibility testing (CLSI M38-A2); details: Trichophyton rubrum, 11199, read-out: Fluconazole MIC
Protocol: as §1

[4] = tested on: Trichophyton mentagrophytes 28641; assay: MIC susceptibility testing (CLSI M38-A2); details: Trichophyton mentagrophytes, 28641, read-out: Fluconazole MIC
Protocol: as §1

[5] = tested on: Trichophyton rubrum 28658; assay: MIC susceptibility testing (CLSI M38-A2); details: Trichophyton rubrum, 28658, read-out: Fluconazole MIC
Protocol: as §1

[6] = tested on: Trichophyton mentagrophytes 10207; assay: MIC susceptibility testing (CLSI M38-A2); details: Trichophyton mentagrophytes, 10207, read-out: Fluconazole MIC
Protocol: as §1

[7] = tested on: Fluconazole resistant C. albicans and C. glabrata; assay: MIC against fluconazole resistant isolates
Protocol: as §1

Candida glabrata 27243 = assay: MIC susceptibility testing (CLSI M27-A3); details: Nakaseomyces glabratus, 27243, 24 h, read-out: Fluconazole MIC
Protocol: as §1

Candida krusei 9541 = assay: MIC susceptibility testing (CLSI M27-A3); details: Pichia kudriavzevii, 9541, 24 h, read-out: Fluconazole MIC
Protocol: as §1

[8] = tested on: Cryptococcus neoformans 19526; assay: MIC susceptibility testing (CLSI M27-A3); details: Cryptococcus neoformans, 19526, 72 h, read-out: Fluconazole MIC
Protocol: as §1

[9] = tested on: Cryptococcus neoformans 27708; assay: MIC susceptibility testing (CLSI M27-A3); details: Cryptococcus neoformans, 27708, 72 h, read-out: Fluconazole MIC
Protocol: as §1

Candida albicans 28200 = assay: MIC susceptibility testing (CLSI M27-A3); details: Candida albicans, 28200, 24 h, read-out: Fluconazole MIC
Protocol: as §1

Candida tropicalis 28478 = assay: MIC susceptibility testing (CLSI M27-A3); details: Candida tropicalis, 28478, 24 h, read-out: Fluconazole MIC
Protocol: as §1

Candida krusei 28415 = assay: MIC susceptibility testing (CLSI M27-A3); details: Pichia kudriavzevii, 28415, 24 h, read-out: Fluconazole MIC
Protocol: as §1

Candida tropicalis 28272 = assay: MIC susceptibility testing (CLSI M27-A3); details: Candida tropicalis, 28272, 24 h, read-out: Fluconazole MIC
Protocol: as §1

Candida albicans 28102 = assay: MIC susceptibility testing (CLSI M27-A3); details: Candida albicans, 28102, 24 h, read-out: Fluconazole MIC
Protocol: as §1

[10] = tested on: Candida parapsilosis 2006; assay: MIC susceptibility testing (CLSI M27-A3); details: Lodderomyces parapsilosis, 2006, 24 h, read-out: Fluconazole MIC
Protocol: as §1

[11] = tested on: Candida parapsilosis 28174; assay: MIC susceptibility testing (CLSI M27-A3); details: Lodderomyces parapsilosis, 28174, 24 h, read-out: Fluconazole MIC
Protocol: as §1

Candida glabrata 28271 = assay: MIC susceptibility testing (CLSI M27-A3); details: Nakaseomyces glabratus, 28271, 24 h, read-out: Fluconazole MIC
Protocol: as §1

Candida krusei 28570 = assay: MIC susceptibility testing (CLSI M27-A3); details: Pichia kudriavzevii, 28570, 24 h, read-out: Fluconazole MIC
Protocol: as §1

Candida glabrata 25742 = assay: MIC susceptibility testing (CLSI M27-A3); details: Nakaseomyces glabratus, 25742, 24 h, read-out: Fluconazole MIC
Protocol: as §1

[12] = tested on: Cryptococcus neoformans 28446; assay: MIC susceptibility testing (CLSI M27-A3); details: Cryptococcus neoformans, 28446, 72 h, read-out: Fluconazole MIC
Protocol: as §1

[13] = tested on: Candida parapsilosis 28364; assay: MIC susceptibility testing (CLSI M27-A3); details: Lodderomyces parapsilosis, 28364, 24 h, read-out: Fluconazole MIC
Protocol: as §1

Candida tropicalis 9624 = assay: MIC susceptibility testing (CLSI M27-A3); details: Candida tropicalis, 9624, 24 h, read-out: Fluconazole MIC
Protocol: as §1

Candida albicans 23512 = assay: MIC susceptibility testing (CLSI M27-A3); details: Candida albicans, 23512, 24 h, read-out: Fluconazole MIC
Protocol: as §1

In the case of `OC(Cn1cncn1)(Cn1cncn1)c1ccc(F)cc1F` [Fluconazole], the MIC [1] is reported as 2 µg/mL (≈ 6.53 µM), the MIC [2] is reported as greater than 16 µg/mL and the MIC [3] is reported as 0.25 µg/mL (≈ 0.816 µM). It also gave an MIC [4] of 16 µg/mL (≈ 52.2 µM), an MIC [5] of 2 µg/mL (≈ 6.53 µM) and an MIC [6] greater than 16 µg/mL. For the same compound, the “MIC / inhibitory concentrations” value [7] was no less than 32 µg/mL, the MIC (Candida glabrata 27243) was 64 µg/mL (≈ 209 µM) and the MIC (Candida krusei 9541) was 16 µg/mL (≈ 52.2 µM). For the same compound, the MIC [8] was 4 µg/mL (≈ 13.1 µM), the MIC [9] was 2 µg/mL (≈ 6.53 µM) and the MIC (Candida albicans 28200) was 8 µg/mL (≈ 26.1 µM). For the same compound, the MIC (Candida tropicalis 28478) was 0.125 µg/mL (≈ 0.408 µM), the MIC (Candida krusei 28415) was 64 µg/mL (≈ 209 µM) and the MIC (Candida tropicalis 28272) was 0.125 µg/mL (≈ 0.408 µM). It also gave an MIC (Candida albicans 28102) of 0.125 µg/mL (≈ 0.408 µM), an MIC [10] of 0.125 µg/mL (≈ 0.408 µM) and an MIC [11] of 0.25 µg/mL (≈ 0.816 µM). The MIC (Candida glabrata 28271) was greater than 64 µg/mL, the MIC (Candida krusei 28570) was 16 µg/mL (≈ 52.2 µM) and the MIC (Candida glabrata 25742) was 4 µg/mL (≈ 13.1 µM). For the same compound, the MIC [12] was 4 µg/mL (≈ 13.1 µM), the MIC [13] was 0.25 µg/mL (≈ 0.816 µM) and the MIC (Candida tropicalis 9624) was 0.25 µg/mL (≈ 0.816 µM). For the same compound, the MIC (Candida albicans 23512) was 32 µg/mL (≈ 104 µM).
